According to US5298490A, “Tetra and penta-peptides useful in regulating the immune system” (Immunobiology Research Institute, Inc., priority 1990, dated 1994):
One block for each compound: values may come before it. Square brackets hold non-standard residues; d marks the D form. Ends that are not written are not given here. Peptide text beside a SMILES is read from it. Aib = CC(C)(N)C(=O)O

Legend:
[1] = test system: MOLT-4 cells; assay: Cyclic GMP assay in MOLT-4 cells; type: cell-based, human; details: for activity in cGMP dose-response curves (FIG. 1): evaluated from 1 to 1000 μgs/ml in MOLT-4 cells
Text: This assay measures the ability of a peptide of this invention to bind to the cell membrane receptor of the intact MOLT-4 cell and selectively stimulate production of cyclic GMP, as does human thysplenin and human thymopentin.
The MOLT-4 cell line was obtained from the American Type Culture Collection of Rockville, Md. MOLT-4 cells were freshly seeded and grown for 3 days with harvesting as described in T. Audhya et al, Arch. Biochem Biophys., 234: 167-177 (1984). The cells were washed 3 times in PBS and resuspended in RPMI 1640 at a concentration of 1.0×10^7 cells/ml and were allowed to equilibrate at 37° C. for 30 minutes before the addition of the test tetrapeptides and pentapeptides (25 ul) and control peptides. The incubation was allowed to proceed in a shaking water bath for 4-5 minutes and was then terminated by addition of 1 ml ice-cold TCA (10 percent).
The cells in TCA were homogenized and sonicated to release cyclic nucleotide. The suspension was centrifuged at 3000×g for 20 minutes at 4° C. The resulting precipitate was dissolved in 0.1N NaOH to determine the protein content. TCA was removed from the supernatant fraction by extracting 4 times with 5 ml of water-saturated diethyl ether. After the final extraction, the remaining traces of ether were removed by heating for 10 minutes in a 50° C. water bath. After lyophilization the sample was reconstituted in 50 mM acetate buffer (pH 6.2) for radioimmunoassay of cyclic GMP.
A threshold activity was determined for each peptide tested. This is defined as the lowest concentration of the test peptide which induced an intracellular level of cyclic GMP greater than two standard deviations above the control. The controls had intracellular cyclic GMP values of less than 0.5 picomoles/ml (mean±standard deviation). Test results were considered positive if the level of cyclic GMP was greater than 2 times (2 standard deviations) that determined for the parallel negative control.

[2] = Enzymatic stability in rat intestinal juice; details: 37° C., HPLC
[3] = Enzymatic stability in human serum; type: in vitro ADME; details: 37° C., HPLC
Text: Thymopentin was 50% degraded at about 20 seconds.

[4] = test system: non-obese diabetic (NOD) mice; assay: Diabetic mice assay; type: in vivo; details: 1 mg/kg body weight one time a week from weaning, vs vehicle
Text: A strain of non-obese diabetic (NOD) laboratory mice maintained in Hopital Necker, Paris, France, have been bred in which the females spontaneously develop autoimmune disease of the pancreas. In the normal course of this disease in mice, the pancreatic cells are destroyed, resulting in loss of insulin production and diabetes mellitus. This mouse strain thus is a close model of Type I onset juvenile diabetes, which is normally treated with insulin replacement, but which can be typically slowed by immunosuppressive drugs, e.g., cyclosporin.
In this assay, groups of 12 to 20 NOD female mice are injected with 1 mg/kg body weight of a peptide of the present invention one time a week at weaning. This peptide (acetyl-Arg-Pro-Val-Ala-NH2) called splenoralin was administered the above-described formulation containing glycine and raffinose. A control group of mice were injected similarly with 1 mg of the glycine-raffinose vehicle without the peptide one time a week.

[5] = test system: BP8 murine tumor cells; assay: BP8 tumor inhibition assay; type: in vivo, C3H mice; details: 30 ng or 30 μg subcutaneously once per week, vs glycine-raffinose vehicle
Method: An assay is performed using normal healthy C3H laboratory mice. The mice, in groups of 12 to 20, are injected subcutaneously with either 30 ng or 30 μg of a peptide of the present invention once per week. This peptide (acetyl-Arg-Pro-Val-Ala-NH2) called splenoralin was administered in citrate buffer containing 1% glycine and 2% D-raffinose pentahydrate, as described in pending United States patent application Ser. No. 336,236, incorporated herein by reference. A control group of mice were injected similarly with 30 μg of the glycine-raffinose vehicle without the peptide.
Four weeks after the initiation of these weekly injections, each mouse was inoculated intradermally with 5×10^6 BP8 murine tumor cells. BP8 is a conventional benzpyrene induced murine tumor. Once every week thereafter, each mouse is injected with the same amount of either the peptide formulation or the vehicle alone.
FIG. 3 indicates the percent of mice in each group which are negative for the presence of BP8 tumors in the days after the inoculation of tumor cells. FIG. 4 indicates for the same experiment the maximum size of tumors in those mice that did develop tumors.

[6] = Kisfaludy et al 1983; cited from earlier work
[7] = test system: MOLT-4 cells; details: cited from earlier work
[8] = test system: CEM cells; details: cited from earlier work
[9] = Table I, peptide concentration 1 μg/ml
[10] = Table I, peptide concentration 10 μg/ml
[11] = Table I, peptide concentration 100 μg/ml
[12] = Table I, peptide concentration 1000 μg/ml
[13] = Table II, peptide concentration 1 μg/ml
[14] = Table II, peptide concentration 10 μg/ml
[15] = Table II, peptide concentration 100 μg/ml

Compound: CC(=O)N[C@@H](CCCNC(=N)N)C(=O)NC(C)(C)C(=O)N[C@@H](C)C(=O)N[C@H](C(N)=O)C(C)C [Acetyl-Arg--Aib--Ala--Val--NH2, Acetyl-Arg-Aib-Ala-Val-NH2] (Ac-R[Aib]AV-NH2)
cGMP Concentration [1, 9]: 18.78 picograms/ml
cGMP Concentration [1, 10]: 30.45 picograms/ml
cGMP Concentration [1, 11]: 36.17 picograms/ml
cGMP Concentration [1, 12]: 39.48 picograms/ml

Compound: CC(=O)N[C@@H](CCCNC(=N)N)C(=O)NC(C)(C)C(=O)N[C@@H](CCC(=O)O)C(=O)N[C@H](C(N)=O)C(C)C [Acetyl-Arg--Aib--Glu--Val--NH2, Acetyl-Arg-Aib-Glu-Val-NH2] (Ac-R[Aib]EV-NH2)
cGMP Concentration [1, 9]: 3.7 picograms/ml
cGMP Concentration [1, 10]: 11.0 picograms/ml
cGMP Concentration [1, 11]: 17.7 picograms/ml
cGMP Concentration [1, 12]: 24.9 picograms/ml

Compound: CC(=O)N[C@@H](CCCNC(=N)N)C(=O)N1CCC[C@H]1C(=O)N[C@@H](C)C(=O)N[C@H](C(N)=O)C(C)C [Acetyl-Arg--Pro--Ala--Val--NH2, Acetyl-Arg-Pro-Ala-Val-NH2] (Ac-RPAV-NH2)
cGMP Concentration [1, 9]: 7.1 picograms/ml
cGMP Concentration [1, 10]: 14.6 picograms/ml
cGMP Concentration [1, 11]: 19.1 picograms/ml
cGMP Concentration [1, 12]: 24.5 picograms/ml
activity in cGMP dose-response curves (FIG. 1) [1]: active

time remaining substantially undegraded ([2]; rat intestinal juice): at least 120 seconds
time remaining substantially undegraded [3]: at least 120 seconds
Compound: CC(=O)N[C@@H](CCCNC(=N)N)C(=O)N1CCC[C@H]1C(=O)N[C@@H](CC(=O)O)C(=O)N[C@H](C(N)=O)C(C)C [Acetyl-Arg--Pro--Asp--Val--NH2, Acetyl-Arg-Pro-Asp-Val-NH2] (Ac-RPDV-NH2)
cGMP Concentration [1, 9]: 4.55 picograms/ml
cGMP Concentration [1, 10]: 8.99 picograms/ml
cGMP Concentration [1, 11]: 19.62 picograms/ml
cGMP Concentration [1, 12]: 24.09 picograms/ml

Compound: CC(=O)N[C@@H](CCCNC(=N)N)C(=O)N1CCC[C@H]1C(=O)N[C@@H](CCC(N)=O)C(=O)N[C@H](C(N)=O)C(C)C [Acetyl-Arg--Pro--Gln--Val--NH2] (Ac-RPQV-NH2)
cGMP Concentration [1, 9]: 18.75 picograms/ml
cGMP Concentration [1, 10]: 29.68 picograms/ml
cGMP Concentration [1, 11]: 34.98 picograms/ml
cGMP Concentration [1, 12]: 40.23 picograms/ml

Compound: CC(=O)N[C@@H](CCCNC(=N)N)C(=O)N1CCC[C@H]1C(=O)N[C@@H](CCC(=O)O)C(=O)N[C@H](C(N)=O)C(C)C [Acetyl-Arg--Pro--Glu--Val--NH2, Acetyl-Arg-Pro-Glu-Val-NH2] (Ac-RPEV-NH2)
cGMP Concentration [1, 9]: 4.7 picograms/ml
cGMP Concentration [1, 10]: 9.41 picograms/ml
cGMP Concentration [1, 11]: 16.76 picograms/ml
cGMP Concentration [1, 12]: 25.00 picograms/ml

Compound: CC(=O)N[C@@H](CCCNC(=N)N)C(=O)N1CCC[C@H]1C(=O)N[C@H](C(=O)N[C@@H](C)C(N)=O)C(C)C [Acetyl-Arg--Pro--Val--Ala--NH2, Acetyl-Arg-Pro-Val-Ala-NH2] (Ac-RPVA-NH2)
incidence of diabetes / survival in NOD female mice (FIG. 6) [4]: restored the immune function and allowed survival of a greater number of animals than did the placebo
resistance to BP8 tumor growth (percent tumor negative, tumor size; FIG. 3, 4) [5]: enabled the mice to resist the spread and growth of the tumor cells
cGMP Concentration [1, 13]: 7.77 picograms/ml
cGMP Concentration [1, 14]: 17.39 picograms/ml
cGMP Concentration [1, 15]: 24.47 picograms/ml
activity in cGMP dose-response curves (FIG. 2) ([1]; evaluated from 1 to 100 μgs/ml in MOLT-4 cells): active

Compound: CC(=O)N[C@@H](CCCNC(=N)N)C(=O)N1CCC[C@H]1C(=O)N[C@@H](CC(=O)O)C(=O)N1CCC[C@H]1C(N)=O [Acetyl-Arg-Pro-Asp-Pro-NH2, reference compound] (Ac-RPDP-NH2)
activity in cGMP dose-response curves (FIG. 1) [1]: inactive

time after which totally digested ([2]; rat intestinal juice and human serum, matrix of this value not stated): 25 s
Compound: CC(C)[C@H](NC(=O)[C@H](CC(=O)O)NC(=O)[C@H](CCCCN)NC(=O)[C@@H](N)CCCNC(=N)N)C(=O)O [Arg-Lys-Asp-Val, reference compound] (H-RKDV-OH)

Compound: Acetyl-Arg-Pro-beta-Asp-Gly-NH2 [Acetyl-Arg--Pro-β-Asp--Gly--NH2]
cGMP Concentration [1, 9]: 20.56 picograms/ml
cGMP Concentration [1, 10]: 31.83 picograms/ml
cGMP Concentration [1, 11]: 36.66 picograms/ml
cGMP Concentration [1, 12]: 34.95 picograms/ml

Compound: Acetyl-Arg-Pro-β-D-Asp-Val-NH2 [Acetyl-Arg--Pro-β-D-Asp--Val--NH2]
cGMP Concentration [1, 9]: 6.6 picograms/ml
cGMP Concentration [1, 10]: 14.3 picograms/ml
cGMP Concentration [1, 11]: 20.5 picograms/ml
cGMP Concentration [1, 12]: 25.0 picograms/ml
activity in cGMP dose-response curves (FIG. 1) [1]: active

Compound: Arg-Ala-Asp-Val (RADV; printed: Arg-Ala-Asp-Val)
activity in in vitro E rosette test [6]: drastically reduced activity

Compound: Arg-Lys-Ala-Val (RKAV; printed: Arg-Lys-Ala-Val)
activity in in vitro E rosette test [6]: drastically reduced activity

Compound: Arg-Lys-Glu-Val (RKEV; printed: Arg-Lys-Glu-Val)
activity in in vitro E rosette test [6]: highly active

Compound: RKDVY [Arg--Lys--Asp--Val--Tyr, Arg-Lys-Asp-Val-Tyr, reference compound]
biological changes in MOLT-4 cells [7]: induce biological changes
biological changes in CEM cells [8]: induce biological changes
cGMP Concentration [1, 9]: 6.4 picograms/ml
cGMP Concentration [1, 10]: 18.3 picograms/ml
cGMP Concentration [1, 11]: 20.8 picograms/ml
cGMP Concentration [1, 12]: 21.9 picograms/ml
cGMP Concentration [1, 13]: 3.55 picograms/ml
cGMP Concentration [1, 14]: 13.56 picograms/ml
cGMP Concentration [1, 15]: 18.70 picograms/ml
cGMP Concentration ([1]; Table II, peptide concentration 1000 μg/ml): 24.85 picograms/ml

Compound: thymopoietin: immunomodulatory protein isolated from bovine and human thymus (PEFLEDPSVLTKDKLKSELVANNVTLPAGEQRKDVYVQLYLQHLTARNR; Thymopoietin; UniProt P42166 2-50, looked up)
biological changes in MOLT-4 cells [7]: induce biological changes
biological changes in CEM cells [8]: induce biological changes
